Data taken from patent US4173539A, “Cationic surfactant compositions” (Lever Brothers Company, priority 1977, dated 1979).
Values joined by “and” are separate entries in the source; they are usually repeats but may differ in a detail not shown here. Equal entries are not always repeated.

How the values were obtained:
[1] = Krafft point (Kp) determination; assay type: physicochemical; details: aqueous dispersion containing 2% by weight, temperature at which it becomes cloudy on cooling
Protocol: A composition of uniform turbidity can be recognised simply by visual observation of a sample which has been placed in a test tube and allowed to stand for 24 hours at ambient temperature. […] The melting point of particles of softening agent can be determined by placing in a hot stage microscope a sample of composition on a glass slide covered by a glass cover slip and observing the temperature at which melting of the particle occurs as a change in shape of the particles indicating deformation of liquid droplets when the cover slip is moved over the slide. The Krafft point (Kp) of the quaternary ammonium chloride can be determined by heating an aqueous dispersion containing 2% by weight of it to a temperature at which a transparent solution is obtained, cooling it, and observing the temperature at which it becomes cloudy. The clear point of the composition can be determined by heating a sample to 95° C.: lack of optical clarity at this temperature is taken as showing that the clear point is above 95° C.

[2] = Effective normality ratio range of quaternary ammonium salt to anionic surfactant for stable dispersions; assay type: physicochemical
From the text: The ranges of figures in the table are the ranges of normality ratios expressed as quaternary ammonium salt to 1 of anionic surfactant.
There is no specific disclosure of the preparation of aqueous liquid concentrates in these prior publications of stable dispersions containing positively charged particles of quaternary ammonium softeners with single long-chain groups, and to prepare these it is necessary both to select a normality ratio within the operative range for the particular quaternary ammonium salt and anionic surfactant concerned and to employ a method of formulation which gives a homogeneous liquid phase before generating the complex-containing softener particles.

CCCCCCCCCCCCCCCCCCCCCC(=O)OCC(O)C[N+](C)(C)C.[Cl-] (stereo not shown) [3-behenoyloxy-2-hydroxypropyl trimethylammonium chloride]
Krafft point (Kp) [1]: 54 °C and 58 °C
Krafft point (Kp) ([1]; listed as behenoyl-hydroxypropyltrimethylammonium chloride of Preparation I): 58 °C
effective normality ratio range, quaternary ammonium salt to 1 of anionic surfactant ([2]; anionic surfactant: Sodium stearate): 1.2-3.0

CCCCCCCCCCCCCCCCCCCCCC(=O)NCCC[N+](C)(C)C.[Cl-] [behenoylaminopropyl trimethylammonium chloride]
Krafft point (Kp) [1]: 60 °C

CCCCCCCCCCCCCCCC[N+](C)(C)Cc1ccccc1.[Cl-] [cetylbenzyldimethylammonium chloride]
Krafft point (Kp) [1]: 16 °C

CCCCCCCCCCCCCCCCCC[N+](C)(C)C.[Cl-] [stearyltrimethylammonium chloride]
Krafft point (Kp) [1]: 11 °C
effective normality ratio range, quaternary ammonium salt to 1 of anionic surfactant ([2]; anionic surfactant: Sodium C15-C18 olefin sulphonate): 1.4-1.8
effective normality ratio range, quaternary ammonium salt to 1 of anionic surfactant ([2]; anionic surfactant: Sodium linear C10-C15 alkylbenzene sulphonate): 1.5-3.0
effective normality ratio range, quaternary ammonium salt to 1 of anionic surfactant ([2]; anionic surfactant: Sodium random secondary C13-C17 alkane sulphonate): 1.3-2.0
effective normality ratio range, quaternary ammonium salt to 1 of anionic surfactant ([2]; anionic surfactant: Sodium soap of tallow fatty acids): 1.1-1.6
